Entries after “also recorded” stand apart in the source; their conditions may differ.
Test system: patients with ARSI-resistant mCRPC
Test: Phase 1 trial of AZD5069 plus enzalutamide: safety and tolerability (DLTs, treatment-emergent adverse events, NCI-CTCAE v.4.0)
Type: in vivo
Description: The primary trial objective was to evaluate the safety and tolerability of the combination. Key secondary objectives were to evaluate pharmacokinetic–pharmacodynamic parameters and antitumour activity.
Eligible patients were consenting patients aged ≥18 years, who had mCRPC with histologically confirmed prostate adenocarcinoma histology, documented cancer progression at the time of trial entry by Response Evaluation Criteria in Solid Tumors (v.1.1) and/or Prostate Cancer Working Group 2 criteria, and PSA of ≥10 ng ml^−1 at screening.
The dose-escalation phase used a rule-based 3 + 3 design, with an initial three patients enrolled per dose level. If none of the first three patients experienced a DLT, dose escalation proceeded to the next dose level. […] If fewer than two of six patients at any dose level experienced a DLT, dose escalation continued to the next level. If at least two out of up to six patients experienced a DLT, dose escalation stopped and this dose level was defined as the maximum administered dose. Once this maximum administered dose was defined, the maximum tolerated dose (MTD) was confirmed at the dose level below the maximum administered dose. At least six evaluable patients were required to establish the MTD at a specific dose level. […] Intra-patient dose escalation was not permitted. Start of dosing between the first and second patient enrolled to each dose level was staggered by 1 week. Once the MTD was determined in the phase 1 study, the recommended phase 2 dose was determined on the basis of available data, including but not limited to safety and response.
DLTs were defined as described in the study protocol. […] Prophylaxis with growth factor support or antipyretics were not permitted. Investigators determined whether an adverse event was related to the study drugs. If a patient experienced clinically significant and/or unacceptable toxicity, including a DLT, not attributable to the disease or disease-related processes, dosing was interrupted or the dose was reduced and supportive therapy was administered as required.

## C[C@@H](Oc1cc(NS(=O)(=O)N2CCC2)nc(SCc2cccc(F)c2F)n1)[C@@H](O)CO [AZD5069]
AZD5069 40 mg BD (n=3)
  TEAE Anemia, All G: 1 (33) n (%)
  TEAE Anemia, G≥3: 0 (0) n (%)
  TEAE Aphasia, All G: 0 (0) n (%)
  TEAE Aphasia, G≥3: 0 (0) n (%)
  TEAE Arthralgia, All G: 0 (0) n (%)
  TEAE Arthralgia, G≥3: 0 (0) n (%)
  TEAE Aspartate aminotransferase increased, All G: 0 (0) n (%)
  TEAE Aspartate aminotransferase increased, G≥3: 0 (0) n (%)
  TEAE Constipation, All G: 0 (0) n (%)
  TEAE Constipation, G≥3: 0 (0) n (%)
  TEAE Death, All G: 0 (0) n (%)
  TEAE Death, G≥3: 0 (0) n (%)
  TEAE Decreased appetite, All G: 0 (0) n (%)
  TEAE Decreased appetite, G≥3: 0 (0) n (%)
  TEAE Diarrhoea, All G: 0 (0) n (%)
  TEAE Diarrhoea, G≥3: 0 (0) n (%)
  TEAE Dry skin, All G: 0 (0) n (%)
  TEAE Dry skin, G≥3: 0 (0) n (%)
  TEAE Fatigue, All G: 0 (0) n (%)
  TEAE Fatigue, G≥3: 0 (0) n (%)
  TEAE Headache, All G: 0 (0) n (%)
  TEAE Headache, G≥3: 0 (0) n (%)
  TEAE Hypophosphataemia, All G: 0 (0) n (%)
  TEAE Hypophosphataemia, G≥3: 0 (0) n (%)
  TEAE Nausea, All G: 1 (33) n (%)
  TEAE Nausea, G≥3: 0 (0) n (%)
  TEAE Neutrophil decreased, All G: 2 (67) n (%)
  TEAE Neutrophil decreased, G≥3: 0 (0) n (%)
  TEAE Oedema genital, All G: 0 (0) n (%)
  TEAE Oedema genital, G≥3: 0 (0) n (%)
  TEAE Platelet decreased, All G: 0 (0) n (%)
  TEAE Platelet decreased, G≥3: 0 (0) n (%)
  TEAE Pruritus, All G: 1 (33) n (%)
  TEAE Pruritus, G≥3: 0 (0) n (%)
  TEAE Skin infection, All G: 0 (0) n (%)
  TEAE Skin infection, G≥3: 0 (0) n (%)
  TEAE Vomiting, All G: 1 (33) n (%)
  TEAE Vomiting, G≥3: 0 (0) n (%)
  TEAE White blood cell decreased, All G: 0 (0) n (%)
  TEAE White blood cell decreased, G≥3: 0 (0) n (%)
AZD5069 40 mg BD to 320 mg BD plus enzalutamide 160 mg OD, 21 patients evaluable for DLTs
  dose-limiting toxicity (DLT): did not observe any DLT; also recorded: without dose-limiting toxicity
AZD5069 80 mg BD (n=4)
  TEAE Anemia, All G: 0 (0) n (%)
  TEAE Anemia, G≥3: 0 (0) n (%)
  TEAE Aphasia, All G: 0 (0) n (%)
  TEAE Aphasia, G≥3: 0 (0) n (%)
  TEAE Arthralgia, All G: 0 (0) n (%)
  TEAE Arthralgia, G≥3: 0 (0) n (%)
  TEAE Aspartate aminotransferase increased, All G: 0 (0) n (%)
  TEAE Aspartate aminotransferase increased, G≥3: 0 (0) n (%)
  TEAE Constipation, All G: 0 (0) n (%)
  TEAE Constipation, G≥3: 0 (0) n (%)
  TEAE Death, All G: 0 (0) n (%)
  TEAE Death, G≥3: 0 (0) n (%)
  TEAE Decreased appetite, All G: 0 (0) n (%)
  TEAE Decreased appetite, G≥3: 0 (0) n (%)
  TEAE Diarrhoea, All G: 0 (0) n (%)
  TEAE Diarrhoea, G≥3: 0 (0) n (%)
  TEAE Dry skin, All G: 0 (0) n (%)
  TEAE Dry skin, G≥3: 0 (0) n (%)
  TEAE Fatigue, All G: 1 (25) n (%)
  TEAE Fatigue, G≥3: 0 (0) n (%)
  TEAE Headache, All G: 0 (0) n (%)
  TEAE Headache, G≥3: 0 (0) n (%)
  TEAE Hypophosphataemia, All G: 1 (25) n (%)
  TEAE Hypophosphataemia, G≥3: 0 (0) n (%)
  TEAE Nausea, All G: 0 (0) n (%)
  TEAE Nausea, G≥3: 0 (0) n (%)
  TEAE Neutrophil decreased, All G: 3 (75) n (%)
  TEAE Neutrophil decreased, G≥3: 1 (25) n (%)
  TEAE Oedema genital, All G: 0 (0) n (%)
  TEAE Oedema genital, G≥3: 0 (0) n (%)
  TEAE Platelet decreased, All G: 0 (0) n (%)
  TEAE Platelet decreased, G≥3: 0 (0) n (%)
  TEAE Pruritus, All G: 0 (0) n (%)
  TEAE Pruritus, G≥3: 0 (0) n (%)
  TEAE Skin infection, All G: 1 (25) n (%)
  TEAE Skin infection, G≥3: 0 (0) n (%)
  TEAE Vomiting, All G: 0 (0) n (%)
  TEAE Vomiting, G≥3: 0 (0) n (%)
  TEAE White blood cell decreased, All G: 0 (0) n (%)
  TEAE White blood cell decreased, G≥3: 0 (0) n (%)
AZD5069 120 mg BD (n=3)
  TEAE Anemia, All G: 1 (33) n (%)
  TEAE Anemia, G≥3: 0 (0) n (%)
  TEAE Aphasia, All G: 0 (0) n (%)
  TEAE Aphasia, G≥3: 0 (0) n (%)
  TEAE Arthralgia, All G: 0 (0) n (%)
  TEAE Arthralgia, G≥3: 0 (0) n (%)
  TEAE Aspartate aminotransferase increased, All G: 0 (0) n (%)
  TEAE Aspartate aminotransferase increased, G≥3: 0 (0) n (%)
  TEAE Constipation, All G: 1 (33) n (%)
  TEAE Constipation, G≥3: 0 (0) n (%)
  TEAE Death, All G: 0 (0) n (%)
  TEAE Death, G≥3: 0 (0) n (%)
  TEAE Decreased appetite, All G: 0 (0) n (%)
  TEAE Decreased appetite, G≥3: 0 (0) n (%)
  TEAE Diarrhoea, All G: 0 (0) n (%)
  TEAE Diarrhoea, G≥3: 0 (0) n (%)
  TEAE Dry skin, All G: 0 (0) n (%)
  TEAE Dry skin, G≥3: 0 (0) n (%)
  TEAE Fatigue, All G: 1 (33) n (%)
  TEAE Fatigue, G≥3: 0 (0) n (%)
  TEAE Headache, All G: 0 (0) n (%)
  TEAE Headache, G≥3: 0 (0) n (%)
  TEAE Hypophosphataemia, All G: 0 (0) n (%)
  TEAE Hypophosphataemia, G≥3: 0 (0) n (%)
  TEAE Nausea, All G: 1 (33) n (%)
  TEAE Nausea, G≥3: 0 (0) n (%)
  TEAE Neutrophil decreased, All G: 3 (100) n (%)
  TEAE Neutrophil decreased, G≥3: 2 (67) n (%)
  TEAE Oedema genital, All G: 0 (0) n (%)
  TEAE Oedema genital, G≥3: 0 (0) n (%)
  TEAE Platelet decreased, All G: 1 (33) n (%)
  TEAE Platelet decreased, G≥3: 0 (0) n (%)
  TEAE Pruritus, All G: 0 (0) n (%)
  TEAE Pruritus, G≥3: 0 (0) n (%)
  TEAE Skin infection, All G: 0 (0) n (%)
  TEAE Skin infection, G≥3: 0 (0) n (%)
  TEAE Vomiting, All G: 0 (0) n (%)
  TEAE Vomiting, G≥3: 0 (0) n (%)
  TEAE White blood cell decreased, All G: 0 (0) n (%)
  TEAE White blood cell decreased, G≥3: 0 (0) n (%)
AZD5069 160 mg BD (n=6)
  TEAE Anemia, All G: 2 (33) n (%)
  TEAE Anemia, G≥3: 1 (17) n (%)
  TEAE Aphasia, All G: 0 (0) n (%)
  TEAE Aphasia, G≥3: 0 (0) n (%)
  TEAE Arthralgia, All G: 0 (0) n (%)

Reference: article PMC10686834, “Targeting myeloid chemotaxis to reverse prostate cancer therapy resistance” (Nature, 2023)
